This note sets out measurements from patent US20260258048A1, “LACTAM-CONTAINING IMIDAZOPYRIDAZINE IL-17 INHIBITOR COMPOUNDS” (Janssen Pharmaceutica NV, priority 2023, published 2026).

Some results are limits rather than exact numbers.

The target in test [1] is IL-17A(FLAG-tagged): IL-17RA(His-tagged) (Homo sapiens, UniProt Q16552, K93Q). The test can be described thus: IL-17A(FLAG-tagged): IL-17RA(His-tagged) binding disruption Eu-HTRF assay. To be noted: for potency increase in the HTRF IC50 when compared to its C-3 epimer: (S)-configuration on C-3 (cis) vs (R)-epimer (trans): Example 51 vs 52, Example 59 vs 60. The essentials:
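Compound (22-point, 2-fold series) was pre-incubated 1 h at rt with FLAG-IL-17A, added as a 2× solution (1 μM). A 2× mix of C-terminal 10×His IL-17RA, Eu-anti-FLAG donor and D2-anti-His acceptor in PBS/0.01% Triton X-100/200 mM KF was then added for 2 h at rt. The 665/615 nm ratio was fitted to one-site competition for IC50.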

In test [2] the test system is IL-17A-induced G-CSF production in human normal keratinocyte (NHK). The test can be described thus: NHK assay: IL-17A-induced G-CSF production in normal human keratinocytes. The format is cell-based. To be noted: Homo sapiens, Keratinocyte, 24 h, IL-17A 5 ng/mL. The essentials: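 Adult keratinocytes at 3000-4000 cells/well; recombinant human IL-17A pre-incubated 1 h at rt with titrated compound, then added to cells (final 5 ng/mL IL-17A, 0.2% DMSO, 5% FBS) for 24 h at 37 °C. Supernatant G-CSF quantified by HTRF against a standard curve to give IC50; viability checked by CellTiter-Glo versus DMSO.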

The mark [3] stands for this setting: class of the average IC50 where tested more than once.

UniProt Q16552, sequence (Q16552 with tags, fused parts or gaps K93Q): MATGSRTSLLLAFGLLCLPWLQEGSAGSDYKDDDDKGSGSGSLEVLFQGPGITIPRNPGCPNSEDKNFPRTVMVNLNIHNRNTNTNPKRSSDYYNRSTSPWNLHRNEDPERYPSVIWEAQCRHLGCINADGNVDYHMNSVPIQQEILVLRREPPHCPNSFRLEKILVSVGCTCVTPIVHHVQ

In general, IC50 refers to the midpoint of a concentration-inhibition curve. A low value points to greater potency. With `C[C@@H](c1cnn2cc([C@@H](NC(=O)c3nonc3C3CC3)C3CCC(F)(F)CC3)nc2c1)[C@@H]1C[C@@H](C(F)(F)F)NC1=O` (single isomer, unassigned) [Example 80, 4-Cyclopropyl-N—((S)-(4,4-difluorocyclohexyl(7-((R*)-1-((3S*,5S)-2-oxo-5-(trifluoromethyl)pyrrolidin-3-yl)ethyl)imidazo[1,2-b]pyridazin-2-yl)methyl)-1,2,5-oxadiazole-3-carboxamide], the IC50 in test [1] (setting [3]) and in test [2] (setting [3]) was 400 to 4000 nM in each case.

For `C[C@]1(Cc2cnn3cc([C@@H](NC(=O)c4nonc4C4CC4)C4CCC(F)(F)CC4)nc3c2)C[C@@H](C(F)(F)F)NC1=O` (single isomer, unassigned) [Example 97], the IC50 in test [1] (setting [3]) and in test [2] (setting [3]) was less than 400 nM in each case.

Consider `Cc1nonc1C(=O)N[C@H](c1cn2ncc(CC3(CC#N)C[C@@H](C(F)(F)F)NC3=O)cc2n1)C1CCC(F)(F)CC1` (single isomer, unassigned) [Example 103, N—((S)-(7-(((3S*,5S)-3-(Cyanomethyl)-2-oxo-5-(trifluoromethyl)pyrrolidin-3-yl)methyl)imidazo[1,2-b]pyridazin-2-yl)(4,4-difluorocyclohexyl)methyl)-4-methyl-1,2,5-oxadiazole-3-carboxamide], for which the half-inhibitory concentration (IC50) in test [1] (setting [3]) and in test [2] (setting [3]) was less than 400 nM throughout.

For `N#CCC1(Cc2cnn3cc([C@@H](NC(=O)c4nonc4C4CC4)C4CCC(F)(F)CC4)nc3c2)C[C@@H](C(F)(F)F)NC1=O` (single isomer, unassigned) [Example 104, N—((S)-(7-(((3S*,5S)-3-(Cyanomethyl)-2-oxo-5-(trifluoromethyl)pyrrolidin-3-yl)methyl)imidazo[1,2-b]pyridazin-2-yl)(4,4-difluorocyclohexyl)methyl)-4-cyclopropyl-1,2,5-oxadiazole-3-carboxamide], the half-inhibitory concentration (IC50) in test [1] (setting [3]) and in test [2] (setting [3]) was less than 400 nM throughout.

As for `Cc1nonc1C(=O)N[C@H](c1cn2ncc(CC3(CN(C)C)C[C@@H](C(F)(F)F)NC3=O)cc2n1)C1CCC(F)(F)CC1` (single isomer, unassigned) [Example 105, N—((S)-(4,4-Difluorocyclohexyl)(7-(((3S*,5S)-3-((dimethylamino)methyl)-2-oxo-5-(trifluoromethyl)pyrrolidin-3-yl)methyl)imidazo[1,2-b]pyridazin-2-yl)methyl)-4-methyl-1,2,5-oxadiazole-3-carboxamide], the IC50 in test [1] (setting [3]) and in test [2] (setting [3]) was less than 400 nM throughout.

As to `O=C(N[C@H](c1cn2ncc(C[C@@]3(O)C[C@@H](C(F)(F)F)NC3=O)cc2n1)C1CCC(F)(F)CC1)c1nonc1C1CC1` [Example 36], the 50% inhibitory concentration (IC50) in test [1] (setting [3]) and in test [2] (setting [3]) was less than 400 nM each time.

Take `CC(C)n1nccc1C(=O)N[C@H](c1cn2ncc(C[C@H]3C[C@@H](C(F)(F)F)NC3=O)cc2n1)C1CCC(F)(F)CC1` [Example 51, N—((S)-(4,4-Difluorocyclohexyl)(7-(((3S,5S)-2-oxo-5-(trifluoromethyl)pyrrolidin-3-yl)methyl)imidazo[1,2-b]pyridazin-2-yl)methyl)-1-isopropyl-1H-pyrazole-5-carboxamide]: the “potency increase in the HTRF IC50 when compared to its C-3 epimer” value in test [1] was “more than 100 fold”. Further, the 50% inhibitory concentration (IC50) was less than 400 nM in test [1] (setting [3]); 150 nM in test [1] (value in brackets, Table 4); less than 400 nM in test [2] (setting [3]); 50 nM in test [2] (value in brackets, Table 4).

For the molecule `CC(C)n1nccc1C(=O)N[C@H](c1cn2ncc(C[C@@H]3C[C@@H](C(F)(F)F)NC3=O)cc2n1)C1CCC(F)(F)CC1` [Example 52, N—((S)-(4,4-Difluorocyclohexyl)(7-(((3R,5S)-2-oxo-5-(trifluoromethyl)pyrrolidin-3-yl)methyl)imidazo[1,2-b]pyridazin-2-yl)methyl)-1-isopropyl-1H-pyrazole-5-carboxamide], the IC50 was 400 to 4000 nM in test [1] (setting [3]); 2450 nM in test [1] (value in brackets, Table 4); 400 to 4000 nM in test [2] (setting [3]); 2830 nM in test [2] (value in brackets, Table 4).

Take `O=C(N[C@H](c1cn2ncc(C[C@H]3C[C@@H](C(F)(F)F)NC3=O)cc2n1)C1CCC(F)(F)CC1)c1nonc1C1CC1` [Example 59, 4-Cyclopropyl-N—[(S)-(4,4-difluorocyclohexyl)-[7-[[(3S,5S)-2-oxo-5-(trifluoromethyl)pyrrolidin-3-yl]methyl]imidazo[1,2-b]pyridazin-2-yl]methyl]-1,2,5-oxadiazole-3-carboxamide]: the “potency increase in the HTRF IC50 when compared to its C-3 epimer” value in test [1] is “more than 80 fold”. Moreover, the IC50 in test [1] (setting [3]) is less than 400 nM; in test [1] (value in brackets, Table 4) it was 14 nM; in test [2] (setting [3]) it was less than 400 nM; in test [2] (value in brackets, Table 4), 7.8 nM.

Regarding `O=C(N[C@H](c1cn2ncc(C[C@@H]3C[C@@H](C(F)(F)F)NC3=O)cc2n1)C1CCC(F)(F)CC1)c1nonc1C1CC1` [Example 60, 4-Cyclopropyl-N—[(S)-(4,4-difluorocyclohexyl)-[7-[[(3R,5S)-2-oxo-5-(trifluoromethyl)pyrrolidin-3-yl]methyl]imidazo[1,2-b]pyridazin-2-yl]methyl]-1,2,5-oxadiazole-3-carboxamide], the IC50 in test [1] (setting [3]) is 400 to 4000 nM; in test [1] (value in brackets, Table 4), 1140 nM; in test [2] (setting [3]) it was more than 4000 nM; in test [2] (value in brackets, Table 4), more than 4000 nM.

For `O=C(N[C@H](c1cn2ncc(C(O)C3CC(C(F)(F)F)NC3=O)cc2n1)C1CCC(F)(F)CC1)c1nonc1C1CC1` (stereo partly drawn) [Example 61, 4-Cyclopropyl-N—[(S)-(4,4-difluorocyclohexyl)-[7-[hydroxy-[2-oxo-5-(trifluoromethyl)pyrrolidin-3-yl]methyl]imidazo[1,2-b]pyridazin-2-yl]methyl]-1,2,5-oxadiazole-3-carboxamide], the IC50 in test [1] (setting [3]) is 400 to 4000 nM; in test [2] (setting [3]), less than 400 nM.

On to `O=C(N[C@H](c1cn2ncc(CC3CC4(CC4)NC3=O)cc2n1)C1CCC(F)(F)CC1)c1nonc1C1CC1` (stereo partly drawn) [Example 62, 4-Cyclopropyl-N-((1S)-(4,4-difluorocyclohexyl)(7-((5-oxo-4-azaspiro[2.4]heptan-6-yl)methyl)imidazo[1,2-b]pyridazin-2-yl)methyl)-1,2,5-oxadiazole-3-carboxamide], for which the IC50 in test [1] (setting [3]) was 400 to 4000 nM; in test [2] (setting [3]), more than 4000 nM.

`O=C(N[C@H](c1cn2ncc([C@@H](O)[C@H]3C[C@@H](C(F)(F)F)NC3=O)cc2n1)C1CCC(F)(F)CC1)c1nonc1C1CC1` [Example 74]: the IC50 in test [1] (setting [3]) and in test [2] (setting [3]) was less than 400 nM each time.

Turning to `O=C(N[C@H](c1cn2ncc(CC3CC4(COC4)NC3=O)cc2n1)C1CCC(F)(F)CC1)c1nonc1C1CC1` (stereo partly drawn) [Example 98, 4-Cyclopropyl-N-((1S)-(4,4-difluorocyclohexyl)(7-((6-oxo-2-oxa-5-azaspiro[3.4]octan-7-yl)methyl)imidazo[1,2-b]pyridazin-2-yl)methyl)-1,2,5-oxadiazole-3-carboxamide], the IC50 in test [1] (setting [3]) and in test [2] (setting [3]) was more than 4000 nM in each case.
